Experimental data published in patent US9527859B2, “Amidopyridine derivative and use thereof” (Mitsubishi Tanabe Pharma Corporation, priority 2012, dated 2016).

How the values were obtained:
[1] = system: production of IL-17 in mouse splenocytes stimulated by recombinant mouse interleukin-23; assay: Production of IL-17 induced when mouse splenocytes were stimulated by rm-IL-23 (ELISA); type: cell-based; details: Splenocyte, inhibition of IL-17 production, rm-IL-23 1 nmol/L, 72 hours
Experimental: Effect on Production of IL-17 Induced when Mouse Splenocytes were Stimulated by Recombinant Mouse Interleukin-23 (rm-IL-23)
RPMI1640 media (Sigma-Aldrich) were used as a medium, to which 50 units/mL penicillin G potassium/50 μg/mL streptomycin (Gibco) and […] 2-mercaptoethanol (Sigma-Aldrich) were added, and then thereto was added 10% of fetal calf serum (FCS; Cell Culture Technology) which was treated at 56° C. for 30 minutes to be inactivated, and the mixture was used in the Test. The test compound was dissolved in dimethylsulfoxide and then diluted with 10% FCS-containing RPMI1640 medium to a desired concentration to be used. The spleens were aseptically taken out from 6 to 7 week-old male DBA/1J mice (Charles River Japan, Inc.) and a single cell suspension of splenocytes was prepared, which was hemolyzed by hypotonic treatment with a mixed solution of 0.83% aqueous solution of ammonium chloride and Tris-HCl buffer of pH 7.65 (9:1). A cell suspension prepared by using 10% FCS-containing RPMI1640 medium was added to a flat-bottomed 96 well microtestplate (Coaster) at 2×10^5 cells/well. Thereto were added test compounds and rm-IL-23 (R&D systems) were diluted with a medium to 1 to 1,000 nmol/L and 1 nmol/L of the final concentration, respectively, and the mixture was cultured at 37° C., 5% carbon dioxide and 95% air for 72 hours. After completion of the culture, culture supernatant was sampled and production amounts of IL-17 therein were determined by ELISA method. After sampling the supernatant, WST-8 (Seikagaku Corporation) was added at 10 μl/well and cultured at 37° C., 5% carbon dioxide and 95% air for 4 hours. Then, absorbance (O.D.: Optical Density) at 450 nm was measured by a microplate reader and the value was adopted as an index of cell survivability. An inhibition rate was calculated according to the following formula on the basis of an average of production amounts of IL-17 and O.D. values of the well containing a test compound of each concentration. Inhibition (%)=(1−(Average value of well with addition of test compound)/(Average value of well without addition of test compound))×100
Based on the dose-response curve obtained by plotting the inhibition rate in the longitudinal axis and the concentration in the horizontal axis, the concentration of the compound which inhibits the level to 50% of the value of the control group (IC50) (nmol/L) was determined by linear regression analysis.

HepG2 cells = assay: Evaluation of hepatocyte cytotoxicity using HepG2 cells (CellTiter-Glo); type: cell-based, human; details: for Survival rate (%): cell survival rate
Experimental: Evaluation of Hepatocyte Cytotoxicity Using HepG2 Cells
A culture solution was prepared by adding 10% Fetal Bovine Serum (FBS: treated to be inactivated under the condition of 56° C., 30 minutes, Invitrogen, 10082-147), 0.1 mM Non-Essential Amino Acids (NEAA: Invitrogen, 11140-050), 1 mM sodium pyruvate (PyNa: Invitrogen, 11360-070) to Eagle's MEM medium (Invitrogen, 11875-093) and was used after warming to 37° C. before using.
HepG2 cell line (DS Pharma Biomedical) derived from human hepatoma in logarithmic growth phase were used. The number of cells subjected to subculturing was 1 to 5×10^6 cell/15 mL in a 75 cm^2 cultivation flask, and cells were subcultured about every 1 week depending on the condition of cells. In subculturing, cells were rinsed with D-PBS (−) (invitrogen, 14190-144) (10 mL), then thereto was added 0.25% Trypsin-1 mM EDTA (Invitrogen, 25200-056) (1 mL), and the mixture was treated for 10 minutes (37° C., 5% CO2), then thereto was added culture solution (9 mL), and the mixture was collected and centrifuged (1000 rpm×5 minutes, 4° C.). The number of cells were counted by dyeing with 0.4% trypan blue solution (Invitrogen, 15250-061), and then cells were diluted with culture solution to be a specific number of cells and incubated under the condition of 37° C., 5% CO2.
As to a cell seeding, HepG2 cells which were incubated in a 75 cm^2 flask were rinsed with D-PBS (−) (10 mL), and then thereto was added 0.25% Trypsin-1 mM EDTA (1 mL), and the mixture was treated for 10 minutes (37° C., 5% CO2). Thereto was added additional culture solution (9 mL), and the mixture was collected in a 50 mL centrifuge tube to be centrifuged (1000 rpm×5 minutes, 4° C.). A supernatant was removed, and the residual cells were suspended by additional culture solution and sufficiently single-celled by pipetting. After dyeing with 0.4% trypan blue, the number of cells were counted by using a cell counting chamber, and a suspended cell was prepared in a specified cell density (In case of 24-hour exposure: 1×10^5, in case of 48-hour exposure: 5×10^4 cells/mL). The 100 μL of cell suspension was added per 1 well (n=3, 24 hours: 1×10^4, 48 hours: 5×10^3 cells/100 μL/well) of 96 well Clear bottom black microplate (Corning, 3603), and then the mixture was pre-incubated for about 24 hours under the condition of 37° C., 5% CO2.
Stock solutions of test compounds were prepared in a 200-fold concentration of the desired maximum concentration to be homogenized with optional ultrasonication. These stock solutions were preserved at −20° C. Before using, a stock solution was thawed, and diluted with DMSO to be concentrations of 20 mM to 20 μM (common ratio of 3, 7 concentrations in total), and then it was diluted with culture solution in 100-fold to prepare a culture solution containing test compounds in a 2-fold concentration. Thus, the upper limit of the final concentration of DMSO in culture solution was in principle 0.5% (v/v).
A vehicle control group and a positive control group were set with each measurement plate. Chlorpromazine (Wako Pure Chemical Industries, Ltd., 033-10581) was used as a positive control agent (final concentration 24 hours: 20 μM, 48 hours: 15 μM). 20 mM stock solution was thawed, and then diluted with culture solution, and chlorpromazine-containing culture solution was prepared in 2-fold concentration.
As to the treatment of test compounds, a culture solution (100 μL) containing a test compound or a positive control agent and a culture solution (100 μL) containing vehicle were added to each specified well. A culture solution (200 μL) was added to blank (without cells) well. Thus, total amounts of culture solution of each well were 200 μL, and the final concentration of test compounds was 100 μM to 0.1 μM (common ratio of 3, 7 concentrations in total).
Incubation was carried out under the condition of 37° C., 5% CO2 for 24 or 48 hours. […]

SMILES	IC50 [1] [nM]	Cell survival rate (HepG2 cells) [%]	Survival rate (%) (HepG2 cells)
Cc1c(C(=O)Nc2cnc(N3CCC(O)CC3)c(C3CC3)c2)cnn1-c1ccc(Cl)cc1 [Example 39, 1-(4-chlorophenyl)-N-[5-cyclopropyl-6-(4-hydroxypiperidin-1-yl)pyridin-3-yl]-5-methyl-1H-pyrazole-4-carboxamide]	136	65.8	107.1
Cc1cc(NC(=O)c2cnn(-c3ccc(Cl)cc3)c2C)cnc1N1CCC(O)CC1 [Example 43, 1-(4-chlorophenyl)-N-[6-(4-hydroxypiperidin-1-yl)-5-methylpyridin-3-yl]-5-methyl-1H-pyrazole-4-carboxamide]	102		117.8
Cc1cc(NC(=O)c2cnn(-c3ccc(C(F)(F)F)cc3)c2C)cnc1N1CCC(C(C)(C)F)CC1 [Example 47, N-{6-[4-(1-fluoro-1-methylethyl)piperidin-1-yl]-5-methylpyridin-3-yl}-5-methyl-1-[4-(trifluoromethyl)phenyl]-1H-pyrazole-4-carboxamide]	57.9		99.8
Cc1c(C(=O)Nc2cnc(N3CCC(O)CC3)c(C#N)c2)cnn1-c1ccc(C(F)(F)F)cc1 [Example 45, N-[5-cyano-6-(4-hydroxypiperidin-1-yl)pyridin-3-yl]-5-methyl-1-[4-(trifluoromethyl)phenyl]-1H-pyrazole-4-carboxamide]	72.5		92.5
Cc1cc(NC(=O)c2cnn(-c3ccc(C(F)(F)F)cn3)c2C)cnc1N1CCC(C(C)(C)F)CC1 [Example 49, N-{6-[4-(1-fluoro-1-methylethyl)piperidin-1-yl]-5-methylpyridin-3-yl}-5-methyl-1-[5-(trifluoromethyl)pyridin-2-yl]-1H-pyrazole-4-carboxamide]	54.7		102.3
Cc1c(C(=O)Nc2cnc(N3CCC(O)CC3)c(C#N)c2)cnn1-c1ccc(Cl)cc1 [Example 44, 1-(4-chlorophenyl)-N-[5-cyano-6-(4-hydroxypiperidin-1-yl)pyridin-3-yl]-5-methyl-1H-pyrazole-4-carboxamide]	74.9		95.8
